In article PMC10816276 (International Journal of Molecular Sciences, 2024):
≈ marks a conversion by molar mass, not a printed value. Where “and” joins values, the source holds several entries; their conditions need not be identical. Equal values may be shown once.

Tests used:
[1] = test system: Human melanoma A375 tumor cells; assay: CCK-8 cell proliferation and cytotoxicity assay, A375; format: cell-based
Description: I. Cell lines and cell culture. Human melanoma A375 tumor cells and human immortalized keratinocyte (HaCaT) non-tumor cells were obtained from Nanjing Pusheng Biomedical Technology Co., Ltd. (Nanjing, China). The cells (A375/HaCaT) were cultured in Dulbecco’s modified Eagle’s medium (DMEM, Gibco, New York, NY, USA) supplemented with 10% (v/v) fetal bovine serum (FBS, Gibco, New York, NY, USA), and incubated at 37 °C with 5% CO2 in a humidified incubator.
II. Cell viability assay. Cell proliferation and cytotoxicity assays were conducted using the Cell counting kit-8 (CCK-8) on A375 and HaCaT cells. Briefly, the cells were initially seeded in 96-well plates at a density of 4 × 10^4 cells per well and incubated for 24 h at 37 °C with 5% CO2 in a humidified incubator. Each treatment was performed in six duplicate wells. The tested compounds were added at various concentrations, and the cells were then incubated for 72 h. Following the incubation period, CCK-8 solution (Dojindo Laboratories, Kumamoto, Japan) was added to each well, and the plates were further incubated for 2 h. The absorbance of each well at 450 nm was measured using an absorbance microplate reader (BioTek ELx800, Winooski, VT, USA). The assay included negative controls in which cells were treated with ultrapure water and positive controls in which cells were treated with 10 µg·mL^−1 taxol. The percentage of cell growth inhibition was calculated using the following Equation (3). (3) Cell growth inhibition rate [%]=B1−B2/B1−B3×100 where B1 represents the absorbance of a mixture containing cells, medium, and CCK-8 solution, B2 represents the absorbance of a mixture containing cells, medium, CCK-8 solution, and the test compound; and B3 represents a mixture containing medium and CCK-8 solution.

[2] = target: T1, Mushroom tyrosinase (mTyr) (Agaricus bisporus, UniProt C7FF04); details: substrate L-tyrosine; previous experiments; Liu et al., 2023; read-out: IC50, monophenolase activity of mTyr; cited from earlier work
T1 construct: purchased Sigma-Aldrich

apple juice = assay: Browning inhibitory effect on apple juice; set-up: species or system Zhaotong Red Fuji apples; details: absorbance at 420 nm, compared to apple juice blank control
Description: To investigate the anti-browning effect of 6′-O-caffeoylarbutin, apple juice was used following a modified method based on the literature. Zhaotong Red Fuji apples were carefully chosen to ensure uniform shape, color, size, and maturity, free from any physical damage. After peeling, the apples were sliced into 10 g portions. These apple pieces were then immersed in solutions containing different concentrations of 6′-O-caffeoylarbutin for 10 min, followed by homogenization. The homogenized samples were subsequently subjected to centrifugation at 8000 rpm for 5 min at 4 °C, and the resulting supernatant (3 mL) was collected. Simultaneously, a blank control was prepared by extracting apple juice without the addition of any anti-browning agent. The absorbance of the samples at 420 nm was measured using a UV_vis spectrophotometer.

[3] = target: T1, Mushroom tyrosinase (mTyr); assay: Fluorescence quenching of mTyr; format: binding
Description: Fluorescence quenching can be classified into static quenching and dynamic quenching. Static quenching occurs when quenching agents bind to fluorescent substances, forming complexes that result in quenching. Dynamic quenching, on the other hand, primarily arises from thermal motion and molecular collisions. The plot of F0/F against the concentration of 6′-O-caffeoylarbutin yielded a straight line with a good linear relationship (R^2 = 0.9802). […] Typically, the threshold value for the maximum collisional quenching rate constant between small molecular quenchers and large biomolecules is 2.0 × 10^10 L·(mol·s)^−1. If the calculated quenching rate constant is below this threshold, it indicates a dynamic quenching mechanism. Conversely, if the quenching rate constant exceeds this threshold, the quenching process may involve static quenching.
In the static quenching process, the relationship between fluorescence intensity and quencher concentration can be described by Equation (1). lg[(F0 − F)/F] = lgKa + nlg[Q](1) where F0 and F represent relative fluorescence intensities of the solution without and with the quencher, respectively. Ka represents the apparent binding constant between the enzyme and the quencher, n represents the number of binding sites on each biomacromolecule for the quencher, and [Q] denotes the concentration of the quencher. In this study, a double-logarithmic linear regression analysis of lg[(F0 − F)/F] against lg[Q] was conducted to evaluate the interaction between 6′-O-caffeoylarbutin and mTyr. Figure S5C illustrates the resulting regression line, which provided a slope and intercept for the calculation of Ka and n. The obtained values were determined as (10.79 ± 0.82) × 10^4 L∙mol^−1 and 0.79 ± 0.06, respectively. These findings indicate the formation of a stable complex between 6′-O-caffeoylarbutin and mTyr, involving a single binding site.
The fluorescence quenching role of 6′-O-caffeoylarbutin on mTyr was investigated using a RF-6000 fluorescence spectrophotometer (Shimadzu, Kyoto, Japan) with a xenon flash lamp as a light source, according to the literature with minor alterations. The excitation wavelength was 280 nm, with a scanning wavelength ranging from 290 to 500 nm at 37 °C. The excitation and emission bandwidths were 2.5 nm and 5.0 nm, respectively. A 3 mL mixture containing 2.0 mL of 31.25 U·mL^−1 mTyr solution, 0.5 mL of 6′-O-caffeoylarbutin solution (with 3% dimethyl sulfoxide) at concentrations from 0 to 100 μM, and 0.5 mL of PBS was used to collect the fluorescence intensity curves. The PBS served as the corresponding blank to correct the fluorescence intensities. The fluorescence quenching mechanism between mTyr and 6′-O-caffeoylarbutin was described using the Stern-Volmer Equation (2). (2) F0/F=1+KSVQ=1+Kqτ0[Q] where KSV is the Stern-Volmer quenching constant, [Q] represents the concentration of 6′-O-caffeoylarbutin, Kq is bimolecular quenching rate constant, and τ0 denotes the average lifetime of the fluorescence molecules in the absence of 6′-O-caffeoylarbutin (value is 10^−8 s).

T1 sequence (C7FF04 1-392): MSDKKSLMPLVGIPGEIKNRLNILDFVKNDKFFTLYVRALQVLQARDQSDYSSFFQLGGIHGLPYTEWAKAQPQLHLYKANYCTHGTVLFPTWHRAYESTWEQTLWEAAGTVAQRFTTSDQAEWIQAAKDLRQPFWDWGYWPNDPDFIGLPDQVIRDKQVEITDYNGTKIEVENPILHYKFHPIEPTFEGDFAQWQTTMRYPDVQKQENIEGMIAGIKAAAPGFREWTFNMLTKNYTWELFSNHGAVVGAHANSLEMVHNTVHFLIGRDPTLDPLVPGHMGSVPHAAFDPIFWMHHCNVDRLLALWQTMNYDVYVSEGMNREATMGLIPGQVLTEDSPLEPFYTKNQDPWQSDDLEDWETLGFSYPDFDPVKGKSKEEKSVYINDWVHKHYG

## O=C(C=Cc1ccc(O)c(O)c1)OCC1OC(Oc2ccc(O)cc2)C(O)C(O)C1O (centres unmarked) [6′-O-caffeoylarbutin]
[1]; 3.125–100 μg∙mL^−1, 72 h
  inhibition rate: below 5%
[1]; Homo sapiens, A-375, 200 μg∙mL^−1, 72 h, read-out: inhibition rate
  inhibition at 200 µg/mL: 20%
[1]; Homo sapiens, A-375, 400 μg∙mL^−1, 72 h, read-out: inhibition rate
  inhibition at 400 µg/mL: 67.8%
[1]; Homo sapiens, A-375, 72 h, CCK-8
  IC50: 313 µg/mL (≈ 721 µM)
[2]
  IC50: 1110 nM and 1100 nM
Apple juice
  formation of browning compounds in apple juice: significant reduction in the formation of browning compounds in a dose-dependent manner
[3]; 25 μM
  reduction of the peak of the fluorescence emission spectrum of mTyr: 37.18%
[3]; 100 μM
  decrease in the fluorescence emission spectrum of mTyr: 12.57%
[3]; Stern-Volmer, 37 °C
  quenching rate constant Kq: 4.11e+12 L·mol/s
[3]; double-logarithmic regression
  apparent binding constant Ka: 108000 L/mol
  number of binding sites n: 0.79 ± 0.06
